Experimental data: PMC2833169, “Anti-malarial activity of a non-piperidine library of next-generation quinoline methanols” (Malaria Journal, 2010)
Converted amounts (≈) assume the structure as drawn. Read-outs that look alike come from different tables or passages of the source.

Tests used:
[1] = test system: rodent macrophage (RAW) cell line; test: cells; details: Mus musculus, Macrophage, read-out: Macrophage IC50
Protocol: (§1) General cytotoxicity was assessed by first determining LC50 's against a rodent macrophage (RAW) cell line using the 3-(4,5-dimethylthiazole-2-yl)-2,5-diphenyltetrazolium bromide (MTT) assay as described in one of our earlier studies. This screen was conducted to identify compounds that may require de-selection due to generalized toxicity. […] In vitro neurocytotoxicity was assessed by determining LC50s against primary mouse neurons using the MTT assay as described previously. Inhibition of the A2A and A1 receptors was determined at 200 nM in duplicate by Caliper Biosciences (Hanover, Maryland).

[2] = test system: P. falciparum strain TM90C2A; test: labeled hypoxanthine susceptibility assay, P. falciparum TM90C2A; format: cell-based, Plasmodium falciparum
Protocol: (§2) The in vitro activities of quinoline methanols against P. falciparum strains W2, D6, TM91C235, and TM90C2A were evaluated using the traditional labeled hypoxanthine assay of Desjardins et al as modified by Milhous et al. These four P. falciparum strains were selected since they have various levels of resistance to conventional anti-malarials.

P. falciparum strain W2 = test: labeled hypoxanthine susceptibility assay, P. falciparum W2; format: cell-based, Plasmodium falciparum; details: Plasmodium falciparum
Protocol: as §2

[3] = test system: P. falciparum strain TM91C235; test: labeled hypoxanthine susceptibility assay, P. falciparum TM91C235; format: cell-based, Plasmodium falciparum; details: Plasmodium falciparum
Protocol: as §2

P. falciparum strain D6 = test: labeled hypoxanthine susceptibility assay, P. falciparum D6; format: cell-based, Plasmodium falciparum; details: Plasmodium falciparum
Protocol: as §2

[4] = metabolic stability in mouse liver microsomes; format: in vitro ADME; details: pH 7.4; mouse liver microsomes, 1 μM; read-out: Half-life in mouse micro
Protocol: (§3) Interesting compounds were also submitted for drug-drug interaction and metabolic stability assays. Low IC50s against specific cytochrome P450 isoforms may indicate the potential for a harmful drug interaction to occur in vivo with substrates of that isoform. A lack of metabolic stability in vitro may indicate potential metabolic instability in vivo, and, therefore, a shorter half-life. Drug interaction potential was evaluated in vitro using BD Gentest (Franklin Lakes, NJ) CYP450 inhibition kits as recommended by the manufacturer. Metabolic stability assessments were conducted using in vitro liver microsomes. […] The reaction is started with the addition of 1 U/mL glucose-6-phosphate dehydrogenase G6PD. The mixture is incubated on a shaking platform at 37°C, and aliquots are taken and quenched with the addition of an equal volume of cold acetonitrile at 0, 10, 20, 30, and 60 min. Samples are centrifuged at 3700 rpm for […] at 20°C to remove debris. Sample quantification is carried out by LC/MS, and metabolic half-life is calculated by log plots of the total ion chromatograph area remaining.

CYP450 2C9 = biological target: T1, CYP450 2C9 (Homo sapiens, UniProt P11712); test: CYP450 inhibition kit (drug-drug interaction), 2C9; format: biochemical
T1 construct: purchased BD Gentest (Franklin Lakes, NJ)
T1 sequence (P11712 whole entry): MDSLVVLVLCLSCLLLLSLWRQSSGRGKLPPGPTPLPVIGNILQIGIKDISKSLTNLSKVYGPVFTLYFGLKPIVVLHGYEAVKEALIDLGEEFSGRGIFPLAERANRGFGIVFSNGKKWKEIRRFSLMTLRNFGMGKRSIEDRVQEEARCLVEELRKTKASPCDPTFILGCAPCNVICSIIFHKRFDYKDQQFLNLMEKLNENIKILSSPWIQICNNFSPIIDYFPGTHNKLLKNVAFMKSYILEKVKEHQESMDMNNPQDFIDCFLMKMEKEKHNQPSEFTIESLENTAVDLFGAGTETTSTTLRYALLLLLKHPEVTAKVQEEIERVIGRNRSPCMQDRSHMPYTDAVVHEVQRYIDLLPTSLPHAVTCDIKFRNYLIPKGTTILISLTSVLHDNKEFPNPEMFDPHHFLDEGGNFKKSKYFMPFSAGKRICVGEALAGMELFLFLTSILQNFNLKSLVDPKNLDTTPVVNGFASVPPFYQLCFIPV
Protocol: as §3, with “Low” for “Interesting compounds were also submitted for drug-drug interaction and metabolic stability assays. Low”

in vitro = details: mouse
Protocol: as §1

CYP450 2C19 = biological target: T2, CYP450 2C19 (Homo sapiens, UniProt P33261); test: CYP450 inhibition kit (drug-drug interaction), 2C19; format: biochemical
T2 construct: purchased BD Gentest (Franklin Lakes, NJ)
T2 sequence (P33261 whole entry): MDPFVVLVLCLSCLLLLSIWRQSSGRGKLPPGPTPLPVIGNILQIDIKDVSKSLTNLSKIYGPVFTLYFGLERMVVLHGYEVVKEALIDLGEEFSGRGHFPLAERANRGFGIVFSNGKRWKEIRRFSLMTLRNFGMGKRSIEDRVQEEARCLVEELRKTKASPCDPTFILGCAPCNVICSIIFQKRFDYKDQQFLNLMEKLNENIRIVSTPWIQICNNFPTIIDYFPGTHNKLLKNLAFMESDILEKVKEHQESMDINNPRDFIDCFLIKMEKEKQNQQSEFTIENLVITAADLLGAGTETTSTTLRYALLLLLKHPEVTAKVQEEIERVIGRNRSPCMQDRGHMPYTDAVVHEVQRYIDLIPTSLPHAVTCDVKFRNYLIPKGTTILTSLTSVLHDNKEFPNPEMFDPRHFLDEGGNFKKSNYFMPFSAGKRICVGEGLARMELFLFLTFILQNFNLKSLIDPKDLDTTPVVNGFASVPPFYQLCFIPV
Protocol: as §3, with “Low” for “Interesting compounds were also submitted for drug-drug interaction and metabolic stability assays. Low”

CYP450 1A2 = biological target: T3, CYP450 1A2 (Homo sapiens, UniProt P05177); test: CYP450 inhibition kit (drug-drug interaction), 1A2; format: biochemical
T3 construct: purchased BD Gentest (Franklin Lakes, NJ)
T3 sequence (P05177 1-516): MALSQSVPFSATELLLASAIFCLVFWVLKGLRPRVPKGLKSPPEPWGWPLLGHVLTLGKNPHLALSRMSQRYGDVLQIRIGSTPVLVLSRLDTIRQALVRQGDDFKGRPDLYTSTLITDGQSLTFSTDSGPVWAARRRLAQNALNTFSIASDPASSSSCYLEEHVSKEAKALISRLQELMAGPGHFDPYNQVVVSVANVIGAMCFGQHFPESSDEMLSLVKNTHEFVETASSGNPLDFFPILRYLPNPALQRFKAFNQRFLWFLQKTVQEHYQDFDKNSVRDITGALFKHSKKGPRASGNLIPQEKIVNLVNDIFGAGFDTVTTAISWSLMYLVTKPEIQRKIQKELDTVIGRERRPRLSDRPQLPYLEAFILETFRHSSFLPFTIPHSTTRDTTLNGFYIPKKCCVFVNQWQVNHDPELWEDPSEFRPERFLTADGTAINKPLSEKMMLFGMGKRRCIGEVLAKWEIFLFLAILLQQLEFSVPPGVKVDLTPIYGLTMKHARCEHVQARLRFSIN
Protocol: as §3, with “Low” for “Interesting compounds were also submitted for drug-drug interaction and metabolic stability assays. Low”

CYP450 3A4 = biological target: T4, CYP450 3A4 (Homo sapiens, UniProt P08684); test: CYP450 inhibition kit (drug-drug interaction), 3A4; format: biochemical
T4 construct: purchased BD Gentest (Franklin Lakes, NJ)
T4 sequence (P08684 whole entry): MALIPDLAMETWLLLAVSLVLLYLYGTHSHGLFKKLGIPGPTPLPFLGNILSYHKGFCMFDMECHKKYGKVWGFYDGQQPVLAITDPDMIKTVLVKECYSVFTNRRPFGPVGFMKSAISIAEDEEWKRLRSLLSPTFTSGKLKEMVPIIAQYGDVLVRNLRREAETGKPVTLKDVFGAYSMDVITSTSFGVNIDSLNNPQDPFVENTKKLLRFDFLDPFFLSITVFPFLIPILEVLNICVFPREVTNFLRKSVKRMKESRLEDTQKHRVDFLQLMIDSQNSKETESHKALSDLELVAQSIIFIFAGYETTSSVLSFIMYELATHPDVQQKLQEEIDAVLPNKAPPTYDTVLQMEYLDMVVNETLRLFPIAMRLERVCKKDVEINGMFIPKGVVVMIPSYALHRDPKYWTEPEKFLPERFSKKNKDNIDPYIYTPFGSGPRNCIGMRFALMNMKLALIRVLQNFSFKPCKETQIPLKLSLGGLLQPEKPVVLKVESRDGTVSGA
Protocol: as §3, with “Low” for “Interesting compounds were also submitted for drug-drug interaction and metabolic stability assays. Low”

CYP450 2D6 = biological target: T5, CYP450 2D6 (Homo sapiens, UniProt P10635); test: CYP450 inhibition kit (drug-drug interaction), 2D6; format: biochemical
T5 construct: purchased BD Gentest (Franklin Lakes, NJ)
T5 sequence (P10635 whole entry): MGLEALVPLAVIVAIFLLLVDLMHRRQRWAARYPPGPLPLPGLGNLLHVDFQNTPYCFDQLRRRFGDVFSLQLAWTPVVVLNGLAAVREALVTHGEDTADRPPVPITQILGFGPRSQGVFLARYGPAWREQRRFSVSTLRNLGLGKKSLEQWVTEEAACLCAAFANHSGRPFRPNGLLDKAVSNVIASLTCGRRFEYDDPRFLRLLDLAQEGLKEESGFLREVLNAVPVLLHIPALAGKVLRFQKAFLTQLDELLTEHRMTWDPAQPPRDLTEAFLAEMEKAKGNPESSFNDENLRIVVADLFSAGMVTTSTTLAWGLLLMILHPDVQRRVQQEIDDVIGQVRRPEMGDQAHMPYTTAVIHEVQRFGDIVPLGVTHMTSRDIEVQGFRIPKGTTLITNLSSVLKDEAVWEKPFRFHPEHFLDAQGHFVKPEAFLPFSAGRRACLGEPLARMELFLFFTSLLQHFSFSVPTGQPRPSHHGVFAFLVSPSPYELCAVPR
Protocol: as §3, with “Low” for “Interesting compounds were also submitted for drug-drug interaction and metabolic stability assays. Low”

[5] = Plasmodium falciparum, TM90C2A, read-out: PF C2A IC90
[6] = Plasmodium falciparum, TM90C2A, read-out: Pf C2A IC90 nM values calculated using MW in Column C
[7] = Plasmodium falciparum, TM90C2A, read-out: IC90 Pf C2A
[8] = Plasmodium falciparum, TM90C2A, read-out: IC90 PfC2A
[9] = D6, read-out: IC90 Pf D6, P. falciparum D6, mefloquine: historical mean +/- SD (n)
[10] = D6, read-out: PF D6 IC90, P. falciparum D6
[11] = Plasmodium falciparum, TM90C2A; read-out: IC90 PfC2A

SMILES	IC50 [1]	IC90 [2, 5]	IC90 [2, 6]	CSI (C2A/W2) ([2]; ratio of IC90 C2A to IC90 W2)	half-life at 1 μM [4]	IC90 [2, 7]	IC90 [2, 8]	IC50 (CYP450 2C9)	IC90 (P. falciparum strain W2; W2, read-out: IC90 Pf W2)	IC90 (P. falciparum strain W2; W2, read-out: PF W2 IC90)	IC90 ([3]; read-out: IC90 Pf C235)	IC90 ([3]; read-out: PF C235 IC90)	IC90 (P. falciparum strain D6; [9])	IC90 (P. falciparum strain D6; [10])	CC50 (in vitro)	IC50 (CYP450 2C19)	IC50 (CYP450 1A2)	IC50 (CYP450 3A4)	IC50 (CYP450 2D6)	IC90 [2, 11]	other results
OC(c1cc(C(F)(F)F)nc2c(C(F)(F)F)cccc12)C1CCCCN1 (stereo not drawn) [142490 (MQ)]	7.27 µM	0.071 µg/mL	171 nM	6.5	–	–	–	–	–	–	–	–	–	–	–	–	–	–	–	–	IC90 (P. falciparum strain W2; P. falciparum W2, read-out: PF W2 IC90): 0.011 µg/mL (≈ 0.0291 µM); IC90 ([3]; P. falciparum TM91C235, read-out: PF C235 IC90): 0.064 µg/mL (≈ 0.169 µM); IC90 (P. falciparum strain D6; P. falciparum D6, read-out: PF D6 IC90): 0.025 µg/mL (≈ 0.0661 µM)
C=CCNCC(O)c1cc(C(F)(F)F)nc2c(C(F)(F)F)cccc12 (stereo not drawn) [WR308255]	58.4 µM	0.0368 µg/mL	101 nM	9.8	25 min	0.037 µg/mL	101 nM	25 µM	0.0038 µg/mL (≈ 0.0104 µM)	0.00375 µg/mL (≈ 0.0103 µM)	0.019 µg/mL (≈ 0.0522 µM)	0.0187 µg/mL (≈ 0.0513 µM)	0.015 µg/mL (≈ 0.0412 µM)	0.0145 µg/mL (≈ 0.0398 µM)	> 120 µM	25 µM	1.5 µM	18 µM	2.9 µM	–	–
OC(CNC1CCC1)c1cc(C(F)(F)F)nc2c(C(F)(F)F)cccc12 (stereo not drawn) [WR308266]	13.1 µM	0.0517 µg/mL	137 nM	8.5	22 min	0.052 µg/mL	137 nM	12 µM	0.0061 µg/mL (≈ 0.0161 µM)	0.00609 µg/mL (≈ 0.0161 µM)	0.024 µg/mL (≈ 0.0634 µM)	0.0243 µg/mL (≈ 0.0643 µM)	0.025 µg/mL (≈ 0.0661 µM)	0.0245 µg/mL (≈ 0.0647 µM)	59 µM	7.6 µM	2.4 µM	5.7 µM	1.4 µM	–	–
CCC(CC)CNCC(O)c1cc(C(F)(F)F)nc2c(C(F)(F)F)cccc12 (stereo not drawn) [WR308388]	15.7 µM	0.0102 µg/mL	–	9.1	16 min	0.01 µg/mL	–	13 µM	0.0011 µg/mL (≈ 0.00269 µM)	0.00112 µg/mL (≈ 0.00274 µM)	0.011 µg/mL (≈ 0.0269 µM)	0.0109 µg/mL (≈ 0.0267 µM)	0.0067 µg/mL (≈ 0.0164 µM)	0.00671 µg/mL (≈ 0.0164 µM)	56 µM	3.4 µM	1.2 µM	33 µM	0.8 µM	23 nM	–
CC(C)CC(C)NCC(O)c1cc(C(F)(F)F)nc2c(C(F)(F)F)cccc12 (stereo not drawn) [WR308413]	8.5 µM	0.00748 µg/mL	18 nM	7.5	19 min	0.0075 µg/mL	–	19 µM	0.0011 µg/mL (≈ 0.00269 µM)	0.001 µg/mL (≈ 0.00245 µM)	0.015 µg/mL (≈ 0.0367 µM)	0.0147 µg/mL (≈ 0.036 µM)	0.012 µg/mL (≈ 0.0294 µM)	0.0116 µg/mL (≈ 0.0284 µM)	> 120 µM	5.8 µM	26 µM	> 40 µM	1 µM	171 nM	–
CC1C(NCC(O)c2cc(C(F)(F)F)nc3c(C(F)(F)F)cccc23)CC2CC1C2(C)C (stereo not drawn) [WR308446]	8.85 µM	0.0155 µg/mL	–	–	13 min	0.016 µg/mL	–	16 µM	< 0.001 µg/mL	< 0.00048 µg/mL	0.019 µg/mL (≈ 0.0413 µM)	0.0189 µg/mL (≈ 0.041 µM)	0.014 µg/mL (≈ 0.0304 µM)	0.0143 µg/mL (≈ 0.0311 µM)	48 µM	14 µM	> 40 µM	> 40 µM	9.1 µM	34 nM	–
